From patent US10344060B2 (priority 2013, dated 2019)
Bridge positions count the residues as written; N and C are the ends. Square brackets hold non-standard residues; d marks the D form. Peptide text beside a SMILES is read from it. Cha = N[C@@H](CC1CCCCC1)C(=O)O; Ala(CN) = N#CC[C@H](N)C(=O)O; Nle = CCCC[C@H](N)C(=O)O; Pra = C#CC[C@H](N)C(=O)O

Key:
hNav1.7 = hNav1.7 (Homo sapiens, UniProt Q15858); assay: cell-based; type: cell-based; details: Table 12; PatchXpress, tonic block; read-out: PX hNav1.7 Tonic IC50
hNav1.4 = hNav1.4 (Homo sapiens, UniProt P35499); assay: cell-based; type: cell-based; details: Table 12; for IC50: PatchXpress, tonic block, read-out: PX hNav1.4 Tonic IC50; for Nav1.4/Nav1.7: ratio of PX tonic IC50 values
hNav1.4, sequence (P35499 whole entry): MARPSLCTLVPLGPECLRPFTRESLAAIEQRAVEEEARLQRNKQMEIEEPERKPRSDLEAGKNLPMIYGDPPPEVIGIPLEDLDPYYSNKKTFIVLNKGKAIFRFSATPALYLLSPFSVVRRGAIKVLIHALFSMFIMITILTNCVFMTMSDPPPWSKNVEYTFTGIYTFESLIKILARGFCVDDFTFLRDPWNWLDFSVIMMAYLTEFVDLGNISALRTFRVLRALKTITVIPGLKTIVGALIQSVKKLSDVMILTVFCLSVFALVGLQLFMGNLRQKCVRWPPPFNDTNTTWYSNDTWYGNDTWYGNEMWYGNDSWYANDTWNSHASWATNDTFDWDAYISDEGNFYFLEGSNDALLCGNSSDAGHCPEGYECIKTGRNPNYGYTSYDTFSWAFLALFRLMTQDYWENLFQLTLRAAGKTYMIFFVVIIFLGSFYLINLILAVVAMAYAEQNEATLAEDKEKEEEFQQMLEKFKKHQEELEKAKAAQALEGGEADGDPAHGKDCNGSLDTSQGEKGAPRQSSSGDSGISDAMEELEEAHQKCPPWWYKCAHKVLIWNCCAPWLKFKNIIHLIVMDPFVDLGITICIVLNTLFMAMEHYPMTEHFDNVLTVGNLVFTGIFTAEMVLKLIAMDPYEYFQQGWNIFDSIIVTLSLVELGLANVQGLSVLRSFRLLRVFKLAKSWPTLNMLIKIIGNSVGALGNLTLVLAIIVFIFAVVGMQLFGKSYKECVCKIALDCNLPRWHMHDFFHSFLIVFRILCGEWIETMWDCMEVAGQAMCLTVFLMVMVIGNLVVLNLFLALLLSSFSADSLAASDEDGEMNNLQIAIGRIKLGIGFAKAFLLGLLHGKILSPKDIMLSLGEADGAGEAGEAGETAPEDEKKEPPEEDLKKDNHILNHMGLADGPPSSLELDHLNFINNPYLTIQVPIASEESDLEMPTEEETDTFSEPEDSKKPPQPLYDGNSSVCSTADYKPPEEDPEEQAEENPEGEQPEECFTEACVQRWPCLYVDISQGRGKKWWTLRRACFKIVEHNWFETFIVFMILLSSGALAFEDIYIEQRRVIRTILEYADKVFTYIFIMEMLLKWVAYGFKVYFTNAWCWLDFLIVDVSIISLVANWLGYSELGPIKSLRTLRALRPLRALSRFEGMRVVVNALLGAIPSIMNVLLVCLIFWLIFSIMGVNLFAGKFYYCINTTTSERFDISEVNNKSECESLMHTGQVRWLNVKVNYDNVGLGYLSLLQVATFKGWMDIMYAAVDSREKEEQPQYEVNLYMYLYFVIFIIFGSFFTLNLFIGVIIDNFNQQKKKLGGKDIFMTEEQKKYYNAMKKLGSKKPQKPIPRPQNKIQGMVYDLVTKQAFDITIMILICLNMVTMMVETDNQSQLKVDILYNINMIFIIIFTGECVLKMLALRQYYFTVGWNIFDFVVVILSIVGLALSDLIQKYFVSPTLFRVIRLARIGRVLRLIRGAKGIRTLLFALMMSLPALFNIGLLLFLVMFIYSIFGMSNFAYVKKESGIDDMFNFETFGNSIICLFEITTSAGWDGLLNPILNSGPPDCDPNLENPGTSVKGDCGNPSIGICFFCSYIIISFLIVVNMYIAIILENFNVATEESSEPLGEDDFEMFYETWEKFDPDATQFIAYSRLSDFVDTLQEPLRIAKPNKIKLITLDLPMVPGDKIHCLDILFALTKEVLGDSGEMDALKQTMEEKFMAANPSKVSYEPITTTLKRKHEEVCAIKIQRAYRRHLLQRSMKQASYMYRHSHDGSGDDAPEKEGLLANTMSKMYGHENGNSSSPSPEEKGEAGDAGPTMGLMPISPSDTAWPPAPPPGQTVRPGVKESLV

hNav1.7, sequence (Q15858 whole entry): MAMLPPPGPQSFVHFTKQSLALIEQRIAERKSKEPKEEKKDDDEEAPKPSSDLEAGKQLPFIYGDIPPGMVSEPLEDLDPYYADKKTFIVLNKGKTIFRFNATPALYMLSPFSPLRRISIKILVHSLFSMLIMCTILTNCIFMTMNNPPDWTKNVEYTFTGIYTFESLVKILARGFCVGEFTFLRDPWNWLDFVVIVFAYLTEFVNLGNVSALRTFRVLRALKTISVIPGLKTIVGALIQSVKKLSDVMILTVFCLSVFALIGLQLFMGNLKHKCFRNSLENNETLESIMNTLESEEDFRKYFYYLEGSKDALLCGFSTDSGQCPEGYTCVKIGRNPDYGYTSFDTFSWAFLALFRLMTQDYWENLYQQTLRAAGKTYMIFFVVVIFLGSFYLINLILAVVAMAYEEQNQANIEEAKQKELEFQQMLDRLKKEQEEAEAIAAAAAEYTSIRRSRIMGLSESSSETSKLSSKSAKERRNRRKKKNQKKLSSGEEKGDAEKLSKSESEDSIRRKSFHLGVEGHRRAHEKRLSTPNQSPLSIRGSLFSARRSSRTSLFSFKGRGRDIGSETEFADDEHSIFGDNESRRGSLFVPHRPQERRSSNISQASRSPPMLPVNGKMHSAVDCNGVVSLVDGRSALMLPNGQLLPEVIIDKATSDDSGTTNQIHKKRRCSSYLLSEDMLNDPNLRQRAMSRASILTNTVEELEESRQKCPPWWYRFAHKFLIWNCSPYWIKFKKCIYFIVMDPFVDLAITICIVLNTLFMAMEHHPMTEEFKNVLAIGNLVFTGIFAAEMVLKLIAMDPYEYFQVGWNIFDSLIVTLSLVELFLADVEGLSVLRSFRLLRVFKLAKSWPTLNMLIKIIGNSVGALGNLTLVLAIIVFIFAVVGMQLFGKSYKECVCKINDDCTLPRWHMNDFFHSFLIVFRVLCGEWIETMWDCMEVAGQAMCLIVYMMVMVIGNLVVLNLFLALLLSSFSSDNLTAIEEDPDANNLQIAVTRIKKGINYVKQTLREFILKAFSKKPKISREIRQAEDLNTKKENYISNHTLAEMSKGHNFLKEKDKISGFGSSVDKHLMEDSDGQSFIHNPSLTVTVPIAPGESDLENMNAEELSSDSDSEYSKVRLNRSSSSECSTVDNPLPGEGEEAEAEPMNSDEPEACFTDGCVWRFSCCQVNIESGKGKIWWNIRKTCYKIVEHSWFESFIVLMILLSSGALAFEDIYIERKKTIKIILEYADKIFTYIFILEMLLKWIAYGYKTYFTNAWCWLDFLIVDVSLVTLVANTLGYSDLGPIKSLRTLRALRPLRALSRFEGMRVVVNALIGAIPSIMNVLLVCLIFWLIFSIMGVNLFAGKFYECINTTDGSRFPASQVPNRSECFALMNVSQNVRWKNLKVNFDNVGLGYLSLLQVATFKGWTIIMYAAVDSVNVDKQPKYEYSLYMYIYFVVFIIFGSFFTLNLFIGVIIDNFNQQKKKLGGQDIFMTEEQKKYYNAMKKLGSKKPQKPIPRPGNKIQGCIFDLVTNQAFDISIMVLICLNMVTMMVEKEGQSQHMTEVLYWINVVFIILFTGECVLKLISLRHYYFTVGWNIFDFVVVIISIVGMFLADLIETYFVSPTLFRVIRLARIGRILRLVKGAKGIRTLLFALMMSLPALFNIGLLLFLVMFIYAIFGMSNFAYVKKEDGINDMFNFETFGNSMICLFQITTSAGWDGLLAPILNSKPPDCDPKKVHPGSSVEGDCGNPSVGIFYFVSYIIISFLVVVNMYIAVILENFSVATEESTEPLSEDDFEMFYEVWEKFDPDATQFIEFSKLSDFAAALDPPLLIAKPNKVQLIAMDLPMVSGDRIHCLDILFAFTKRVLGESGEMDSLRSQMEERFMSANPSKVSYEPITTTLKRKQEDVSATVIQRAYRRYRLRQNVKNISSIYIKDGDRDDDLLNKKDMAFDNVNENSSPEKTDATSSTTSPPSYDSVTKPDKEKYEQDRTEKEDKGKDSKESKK

`C#CC[C@@H]1NC(=O)[C@@H]2CSSC[C@H](NC(=O)[C@H](CCC(=O)O)NC(=O)[C@@H](N)CC#N)C(=O)N[C@@H](CCC(N)=O)C(=O)N[C@@H](CCCCN)C(=O)N[C@@H](Cc3c[nH]c4ccccc34)C(=O)N[C@@H](CCCC)C(=O)N[C@@H](Cc3c[nH]c4ccccc34)C(=O)N[C@@H]([C@@H](C)O)C(=O)N[C@H]3CSSC[C@H](NC(=O)[C@H](CCCNC(=N)N)NC(=O)[C@H](CC(C)C)NC(=O)CNC1=O)C(=O)N[C@@H](CCCCN)C(=O)N[C@@H](CC(C)C)C(=O)N[C@@H](Cc1c[nH]c4ccccc14)C(=O)N[C@H](C(=O)N[C@@H](CCCNC(=N)N)C(=O)N[C@@H](CCCCN)C(=O)N[C@@H](CCC(=O)O)C(=O)N[C@@H](CC1CCCCC1)C(N)=O)CSSC[C@H](NC(=O)[C@H](C)NC(=O)[C@H](CCCNC(=N)N)NC(=O)[C@H](CCCCN)NC(=O)[C@H](CCC(=O)O)NC(=O)[C@H](CC(=O)O)NC3=O)C(=O)N2` [compound 869] (H-[Ala(CN)]ECQKW[Nle]WTCDEKRACC[Pra]GLRCKLWCRKE[Cha]-NH2; disulfide 3-17, 10-22, 16-26) showed an IC50 (hNav1.7) of 0.95 nM, an IC50 (hNav1.4) of 294 nM and a Nav1.4/Nav1.7 (hNav1.4) of 311.

In the case of `C#CC[C@H](N)C(=O)N[C@@H](Cc1ccc(O)cc1)C(=O)N[C@H]1CSSC[C@@H]2NC(=O)[C@@H]3CSSC[C@@H](C(=O)N[C@@H](CCCNC(=N)N)C(=O)N[C@@H](CCCCN)C(=O)N[C@@H](CCC(=O)O)C(=O)N[C@@H](Cc4c[nH]c5ccccc45)C(N)=O)NC(=O)[C@H](Cc4c[nH]c5ccccc45)NC(=O)[C@H](CC(C)C)NC(=O)[C@H](CCCCN)NC(=O)[C@H](CSSC[C@H](NC(=O)[C@H]([C@@H](C)O)NC(=O)[C@H](Cc4c[nH]c5ccccc45)NC(=O)[C@H](CCCC)NC(=O)[C@H](Cc4c[nH]c5ccccc45)NC(=O)[C@H](CCCCN)NC(=O)[C@H](CCC(N)=O)NC1=O)C(=O)N[C@@H](CC(=O)O)C(=O)N[C@@H](CO)C(=O)N[C@@H](CCCCN)C(=O)N[C@@H](CCCNC(=N)N)C(=O)N[C@@H](C)C(=O)N3)NC(=O)[C@H](CCCNC(=N)N)NC(=O)[C@H](CC(C)C)NC(=O)CNC(=O)[C@H](CCC(=O)O)NC2=O` [compound 450], the IC50 (hNav1.7) is reported as 0.782 nM, the IC50 (hNav1.4) is reported as 36.7 nM and the Nav1.4/Nav1.7 (hNav1.4) is reported as 47.

Work on `C#CC[C@H](N)C(=O)N[C@@H](Cc1ccc(O)cc1)C(=O)N[C@H]1CSSC[C@@H]2NC(=O)[C@@H]3CSSC[C@@H](C(=O)N[C@@H](CCCNC(=N)N)C(=O)N[C@@H](CCCCN)C(=O)N[C@@H](CCC(=O)O)C(=O)N[C@H](C(=O)NCC(=O)O)[C@@H](C)CC)NC(=O)[C@H](Cc4c[nH]c5ccccc45)NC(=O)[C@H](CC(C)C)NC(=O)[C@H](CCCCN)NC(=O)[C@H](CSSC[C@H](NC(=O)[C@H]([C@@H](C)O)NC(=O)[C@H](Cc4c[nH]c5ccccc45)NC(=O)[C@H](CCCC)NC(=O)[C@H](Cc4c[nH]c5ccccc45)NC(=O)[C@H](CCCCN)NC(=O)[C@H](CCC(N)=O)NC1=O)C(=O)N[C@@H](CC(=O)O)C(=O)N[C@@H](CO)C(=O)N[C@@H](CCCCN)C(=O)N[C@@H](CCCNC(=N)N)C(=O)N[C@@H](C)C(=O)N3)NC(=O)[C@H](CCCNC(=N)N)NC(=O)[C@H](CC(C)C)NC(=O)CNC(=O)[C@H](CCC(=O)O)NC2=O` [compound 828] yielded an IC50 (hNav1.7) of 8.34 nM, an IC50 (hNav1.4) of 1760 nM and a Nav1.4/Nav1.7 (hNav1.4) of 211.

Work on `C#CC[C@@H]1NC(=O)[C@@H]2CSSC[C@H](NC(=O)[C@H](Cc3ccc(O)cc3)NC(=O)[C@@H](N)CC#N)C(=O)N[C@@H](CCC(N)=O)C(=O)N[C@@H](CCCCN)C(=O)N[C@@H](Cc3c[nH]c4ccccc34)C(=O)N[C@@H](CCCC)C(=O)N[C@@H](Cc3c[nH]c4ccccc34)C(=O)N[C@@H]([C@@H](C)O)C(=O)N[C@H]3CSSC[C@H](NC(=O)[C@H](CCCNC(=N)N)NC(=O)[C@H](CC(C)C)NC(=O)CNC1=O)C(=O)N[C@@H](CCCCN)C(=O)N[C@@H](CC(C)C)C(=O)N[C@@H](Cc1c[nH]c4ccc(Br)cc14)C(=O)N[C@H](C(=O)N[C@@H](CCCNC(=N)N)C(=O)N[C@@H](CCCCN)C(=O)N[C@H](C(=O)N[C@H](C(N)=O)[C@@H](C)CC)[C@@H](C)CC)CSSC[C@H](NC(=O)[C@H](C)NC(=O)[C@H](CCCNC(=N)N)NC(=O)[C@H](CCCCN)NC(=O)[C@H](CO)NC(=O)[C@H](CC(=O)O)NC3=O)C(=O)N2` [compound 872] yielded an IC50 (hNav1.7) of 1.09 nM, an IC50 (hNav1.4) of 3.6 nM and a Nav1.4/Nav1.7 (hNav1.4) of 3.

Molecule `C#CC[C@H](N)C(=O)N[C@@H](Cc1ccc(O)cc1)C(=O)N[C@H]1C[Se][Se]C[C@@H]2NC(=O)[C@@H]3CSSC[C@@H](C(=O)N[C@@H](CCCNC(=N)N)C(=O)N[C@@H](CCCCN)C(=O)N[C@@H](CCC(=O)O)C(=O)N[C@H](C(N)=O)[C@@H](C)CC)NC(=O)[C@H](Cc4c[nH]c5ccccc45)NC(=O)[C@H](CC(C)C)NC(=O)[C@H](CCCCN)NC(=O)[C@H](CSSC[C@H](NC(=O)[C@H]([C@@H](C)O)NC(=O)[C@H](Cc4c[nH]c5ccccc45)NC(=O)[C@H](CCCC)NC(=O)[C@H](Cc4c[nH]c5ccccc45)NC(=O)[C@H](CCCCN)NC(=O)[C@H](CCC(N)=O)NC1=O)C(=O)N[C@@H](CC(=O)O)C(=O)N[C@@H](CO)C(=O)N[C@@H](CCCCN)C(=O)N[C@@H](CCCNC(=N)N)C(=O)N[C@@H](C)C(=O)N3)NC(=O)[C@H](CCCNC(=N)N)NC(=O)[C@H](CC(C)C)NC(=O)CNC(=O)[C@H](CCC(=O)O)NC2=O` [compound 838] has an IC50 (hNav1.7) of 0.949 nM, an IC50 (hNav1.4) of 58.1 nM and a Nav1.4/Nav1.7 (hNav1.4) of 61.

Work on `C#CC[C@@H]1NC(=O)[C@@H]2CSSC[C@H](NC(=O)[C@H](Cc3ccc(O)cc3)NC(=O)[C@@H](N)CC#N)C(=O)N[C@@H](CCC(N)=O)C(=O)N[C@@H](CCCCN)C(=O)N[C@@H](Cc3c[nH]c4ccccc34)C(=O)N[C@@H](CCCC)C(=O)N[C@@H](Cc3c[nH]c4ccccc34)C(=O)N[C@@H]([C@@H](C)O)C(=O)N[C@H]3CSSC[C@H](NC(=O)[C@H](CCCNC(=N)N)NC(=O)[C@H](CC(C)C)NC(=O)CNC1=O)C(=O)N[C@@H](CCCCN)C(=O)N[C@@H](CC(C)C)C(=O)N[C@@H](Cc1c[nH]c4ccccc14)C(=O)N[C@H](C(=O)N[C@@H](CCCNC(=N)N)C(=O)N[C@@H](CCCCN)C(=O)N[C@@H](CCC(=O)O)C(=O)N[C@@H](Cc1c[nH]c4ccccc14)C(N)=O)CSSC[C@H](NC(=O)[C@H](C)NC(=O)[C@H](CCCNC(=N)N)NC(=O)[C@H](CCCCN)NC(=O)[C@H](CO)NC(=O)[C@H](CC(=O)O)NC3=O)C(=O)N2` [compound 452] yielded an IC50 (hNav1.7) of 2.51 nM, an IC50 (hNav1.4) of 64.6 nM and a Nav1.4/Nav1.7 (hNav1.4) of 26.

For `C#CC[C@H](N)C(=O)N[C@@H](Cc1ccc(O)cc1)C(=O)N[C@H]1CSSC[C@@H]2NC(=O)[C@@H]3CSSC[C@@H](C(=O)N[C@@H](CCCNC(=N)N)C(=O)N[C@@H](CCCCN)C(=O)N[C@@H](CCC(=O)O)C(=O)N[C@H](C(N)=O)[C@@H](C)CC)NC(=O)[C@H](Cc4c[nH]c5ccccc45)NC(=O)[C@H](CCCC)NC(=O)[C@H](CCCCN)NC(=O)[C@H](CSSC[C@H](NC(=O)[C@H]([C@@H](C)O)NC(=O)[C@H](Cc4c[nH]c5ccccc45)NC(=O)[C@H](CCCC)NC(=O)[C@H](Cc4c[nH]c5ccccc45)NC(=O)[C@H](CCCCN)NC(=O)[C@H](CCC(N)=O)NC1=O)C(=O)N[C@@H](CC(=O)O)C(=O)N[C@@H](CO)C(=O)N[C@@H](CCCCN)C(=O)N[C@@H](CCCNC(=N)N)C(=O)N[C@@H](C)C(=O)N3)NC(=O)[C@H](CCCNC(=N)N)NC(=O)[C@H](CC(C)C)NC(=O)CNC(=O)[C@H](CCC(=O)O)NC2=O` [compound 856], the IC50 (hNav1.7) was 1.72 nM, the IC50 (hNav1.4) was 102 nM and the Nav1.4/Nav1.7 (hNav1.4) was 59.
